Laboratory results from patent US20160108431A1, “PREVENTION AND TREATMENT OF ATRIAL FIBRILLATION” (ISIS INNOVATION LIMITED, priority 2013, published 2016).
Entries after “also recorded” stand apart in the source; their conditions may differ. Where a SMILES comes first, the peptide text is derived from it. The star is where a group is joined. Cbz = O=C(OCc1ccccc1)*

What was measured:
human RA myocytes = assay: Action potential duration (APD) and APD rate adaptation in isolated human right atrial myocytes; assay type: cell-based
From the text: All abbreviations are as defined in FIG. 1.
9b. […] Representative AP traces in RA myocytes from patients in SR exposed to 2 doses of 4-AP in the presence or absence of nNOS inhibition with SMTC.
A shorter APD leads to reduced atrial refractoriness and promote AF sustainability. […] These findings indicate that loss of myocardial nNOS signalling is sufficient to produce an atrial electrical substrate that increases both the inducibility and maintenance of AF.

nNOS protein [1] = assay: nNOS protein in human atrial tissue in AF after inhibition of the proteosomal system or autophagy; assay type: cell-based; settings: human RA, MG132 5 μmol/L, bafilomycin 25 nmol/L
Experimental: In the presence of AF, ubiquitination of nNOS protein is increased in human atrial tissue as shown by immunoprecipitation. Protein load of AF samples was increased to match the nNOS content to that seen in SR; n=6 (a). […] All abbreviations are as defined in FIG. 1.
In the skeletal muscle, nNOS protein stability is determined by the enzyme's anchoring to the dystrophin-syntrophin complex. We found a reduction in dystrophin (FIG. 4c, 4d, 4f) and dystrophin-associated proteins (e.g., caveolin-3 and α1-syntrophin, 4c, 4e), and a disruption of the dystrophin-nNOS complex in AF (FIG. 4a, 4b). In humans, atrial nNOS and dystrophin were strongly correlated (FIG. 4g), in keeping with the notion that disruption of the dystrophin-syntrophin complex promotes ubiquitin-dependent nNOS degradation in AF.

nNOS mRNA [2] = assay: nNOS mRNA (gene expression) in transfected human atrial myocytes; assay type: cell-based
From the text: (§1) By contrast, treatment with miR31 mimic has no effect on the DYS mRNA in either SR (n=12) or AF (n=10). *P<0.05, **P<0.01 ***P<0.001 vs controls in SR and #P<0.05, ##P[…], ###P<0.001 vs negative control (NC) using 1-way ANOVA with Bonferroni correction. Dystrophin and nNOS gene expression were normalized to GAPDH.
(§2) 12g-m. […] By contrast, miR31 mimic has no effect on the decay of the DYS mRNA (h).

[3] = test system: nNOS mRNA on the RISC complex; assay: Ribonucleoprotein immunoprecipitation with Ago2 (RISC), nNOS mRNA; assay type: cell-based, human; settings: RA myocytes from AF patients; TSB 20 nM, 48-72 hours; normalized to miR31 in RISC
Experimental: 12a-b. (a) Immunoprecipitation of the RNA-induced silencing effector complex (RISC) protein, Argonaut 2 (Ago2) in RAA myocytes isolated from patients with AF transiently (48-72 hours) transfected with 20 nM of an locked nucleic acids (LNA)-based miR31 target site blocker (TSB, Exiqon) or with corresponding scrambled control (scr, 20 nM, Exiqon). Further details on the sequence of the TSB and scr control, also see FIG. 13). Molecular weight is shown in kilodalton (kDa); Rb IgG—rabbit immunoglobulin G (as negative control); IP—immunoprecipitation, IB—immunoblotting. (b) miR31 expression is unchanged in Ago2 immunoprecipitates from RAA human myocytes.
12c-f. (c) Sequence of the mature human miR31 (hsa-miR31), 23-nucleotide region of the human DYS-3′UTR, the miR31 hairpin inhibitor (anti-miR31, miRIDIAN, Dharmacon) and the 18-nucleotide-long locked nucleic acids (LNA)-based Target Site Blocker (TSB) covering the miR31-binding site on the DYS-3′UTR (TSB_DYS). (d) Sequences of the mature hsa-miR-31, 23-nucleotide region of the human nNOS-3′UTR, the anti-miR31 (miRIDIAN, Dharmacon) and the 18-nucleotide-long TSB covering the miR31-binding site on the nNOS 3′UTR (TSB_nNOS). The miR-31 seed sequence is in grey. […]
(§3) The corresponding mRNA stability was assessed in the presence of a miR-31 mimic (10 nM) in SR myocytes treated with the transcription inhibitor, actinomycin D (5 μg/ml).

dystrophin (DYS) protein = assay: Dystrophin protein content (immunoblot) in transfected human atrial myocytes; assay type: cell-based
nNOS protein [4] = assay: nNOS protein content (immunoblot) in transfected human atrial myocytes; assay type: cell-based
From the text: (§4) RQ—relative quantification, DYS—dystrophin; all other abbreviations are as defined in FIG. 1.
as §1, §2

DYS mRNA [5] = assay: DYS mRNA (gene expression) in transfected human atrial myocytes; assay type: cell-based; settings: for DYS mRNA (expression): SR myocytes, mimic 10 nM, 72 hours (FIG. 10)
From the text: as §1, §2

nNOS mRNA [6] = assay: nNOS mRNA stability in the presence of actinomycin D; assay type: cell-based, human; settings: SR myocytes; actinomycin D 5 μg/ml; mimic 10 nM
Experimental: as §2, §3

miR-31 = miR-31 expression in transfected isolated human atrial myocytes; assay type: cell-based; settings: for miR31 levels: RAA myocytes; for miR-31 expression: 20 nM, 48-72 hours
From the text: as §4
8a. […] Data are expressed as fold change to the controls in SR.
as §1
We hypothesised that a microRNA-mediated translational repression of dystrophin in AF may account for the loss of myocardial nNOS and constitute a novel mechanism underlying AF-induced electrical remodelling.

human nNOS 3′UTR = assay: GFP reporter assay in HEK293 cells, nNOS 3′UTR constructs; assay type: cell-based; settings: HEK293, co-transfected 48 hours, mimic 10 nM
Experimental: 11a. Predicted conserved (site 1) and poorly conserved (sites 2, 3, 4 and 5) miR31-5p binding sites on the human nNOS 3′UTR.
11b. HEK293 cells were co-transfected (48 hours) with reporter constructs containing 2 fragments (˜500 bp) of the nNOS 3′UTR region containing the mir31 binding putative sites (Part1, site 1 & 2 and Part2, sites 3, 4 & 5) and a miR31 mimic (10 nM, miRIDIAN, Dharmacon). […] Further analysis of Part 2, identified site 5 as the functional mir31 site on the nNOS 3′ UTR.

DYS mRNA [7] = assay: DYS mRNA stability in the presence of actinomycin D; assay type: cell-based, human; settings: SR myocytes; actinomycin D 5 μg/ml; mimic 10 nM; listed as miR31 mimic
Experimental: as §2, §3

DYS 3′UTR = assay: GFP reporter assay in HEK293 cells, DYS 3′UTR construct; assay type: cell-based, human; settings: HEK293, co-transfected 48 hours
Experimental: 11c. HEK293 cells were co-transfected (48 hours) with reporter constructs containing the DYS 3′UTR region containing the mir31 binding putative site. […] Reporter assays were performed in triplicates and are representative of at least 3 independent experiments. ###P<0.001 vs vehicle, repeated-measure ANOVA with Bonferroni correction.

[8] = myocytes from patients with AF, 20 nM, 48-72 hours
[9] = myocytes from patients with AF, 20 nM, 48-72 hours, listed as nNOS-TSB
[10] = SR myocytes, mimic 10 nM, 72 hours (FIG. 10), listed as miR31 mimic
[11] = SR myocytes, mimic 10 nM, 72 hours (FIG. 10), listed as miRIDIAN miR-31 mimic
[12] = myocytes from patients in SR, 20 nM, 48-72 hours
[13] = SR myocytes, mimic 10 nM, 72 hours

## Nc1ccncc1 [4-AP]
Human RA myocytes; RA myocytes from patients in SR, 2 doses of 4-AP (100 and 500)
  APD: prolong APD
Human RA myocytes; RA myocytes from patients in SR, 4-AP 100 and 500, with or without SMTC
  difference in APD induced by SMTC: abolish the difference in APD induced by SMTC
Human RA myocytes; human RA myocytes, 4-AP
  APD rate dependent adaptation: restores the APD rate dependent adaptation

## CC(C)C[C@@H](C=O)NC(=O)[C@H](CC(C)C)NC(=O)[C@H](CC(C)C)NC(=O)OCc1ccccc1 [MG132] (Cbz-Leu-Leu-Leu-aldehyde)
nNOS protein [1]
  nNOS protein content: partially restores nNOS protein; also recorded: partially restored nNOS content

## CO/C1=C\C(C)=C\[C@@H](C)[C@@H](O)[C@@H](C)C/C(C)=C/C=C/[C@H](OC)[C@@H]([C@@H](C)[C@@H](O)[C@H](C)[C@@]2(O)C[C@@H](O)[C@H](C)[C@@H](C(C)C)O2)OC1=O [bafilomycin A1]
nNOS protein [1]; listed as bafilomycin
  nNOS protein content: had no effect

## TSB_nNOS: 18-nucleotide-long TSB covering the miR31-binding site on the nNOS 3′UTR (LNA-based, Exiqon) (DNA TGGCAAGAATGAAAAGGC; LNA-based target site blocker, LNA pattern not given here)
nNOS mRNA [2]; [8]
  nNOS mRNA (gene expression): increased nNOS mRNA
nNOS mRNA [2]; [9]
  nNOS mRNA (gene expression): significantly increased
[3]
  loading of nNOS mRNA on the RISC complex (Ago2 immunoprecipitation): selectively prevented loading; also recorded: reduction
Dystrophin (DYS) protein; [8]
  dystrophin (DYS) protein content: without affecting
nNOS protein [4]; [8]
  nNOS protein content: partially recovered nNOS protein
nNOS protein [4]; [9]
  nNOS protein content: recovered nNOS
DYS mRNA [5]; [8]
  DYS mRNA: without affecting

## miR-31 mimic: miRIDIAN miR-31 mimic (Dharmacon) (AGGCAAGATGCTGGCATAGCT; listed as DNA, chemistry not given here)
nNOS mRNA [2]; AF myocytes, mimic (FIG. 10)
  nNOS gene expression: reduces
nNOS mRNA [2]; [10]
  nNOS mRNA (gene expression): reduces
nNOS mRNA [2]; [11]
  nNOS mRNA (gene expression): reduced
Dystrophin (DYS) protein; AF myocytes, mimic (FIG. 10)
  dystrophin protein: reduces
Dystrophin (DYS) protein; [10]
  dystrophin (DYS) protein content: reduces
Dystrophin (DYS) protein; [11]
  dystrophin (DYS) protein content: reduced
Dystrophin (DYS) protein; [12]
  dystrophin (DYS) protein content: dramatically reduced
Dystrophin (DYS) protein; [8]
  dystrophin (DYS) protein content: dramatically reduced
nNOS mRNA [6]
  decay of nNOS mRNA: accelerated the decay of nNOS mRNA
miR-31; AF, mimic (FIG. 10)
  miR31 levels: increases mir31 levels
miR-31; SR, mimic 10 nM, 72 hours (FIG. 10)
  miR31 levels: increases mir31 levels
miR-31; myocytes from patients in SR
  miR-31 expression: upregulation of miR-31
miR-31; myocytes from patients with AF
  miR-31 expression: upregulation of miR-31
nNOS protein [4]; AF myocytes, mimic (FIG. 10)
  nNOS protein: reduces
nNOS protein [4]; [10]
  nNOS protein content: reduces
nNOS protein [4]; [11]
  nNOS protein content: reduced
nNOS protein [4]; [12]
  nNOS protein content: dramatically reduced
nNOS protein [4]; [8]
  nNOS protein content: dramatically reduced
Human nNOS 3′UTR
  GFP fluorescence, wild type (WT) Part 2 nNOS 3′UTR construct: reduction in miR31-mediated GFP fluorescence
  reduction in GFP fluorescence, mutated (Mut) nNOS 3′UTR constructs lacking miR31 binding site: abolished
DYS mRNA [7]
  decay of DYS mRNA: has no effect
DYS 3′UTR
  GFP fluorescence, wild type (WT) DYS 3′UTR construct: reduction in miR31-mediated GFP fluorescence
  reduction in GFP fluorescence, mutated (Mut) DYS 3′UTR constructs lacking miR31 binding site: abolished
DYS mRNA [5]; AF myocytes, mimic (FIG. 10)
  DYS mRNA: has no effect
DYS mRNA [5]; listed as miR31 mimic
  DYS mRNA (expression): has no effect
DYS mRNA [5]; listed as miRIDIAN miR-31 mimic
  DYS mRNA (expression): without affecting
Human RA myocytes; [13]
  APD: shortened APD
  APD rate-dependent adaptation: abolished the APD rate-dependent adaptation
